Reference: patent US9271993B2, “Treatment of bacterial infectious diseases” (priority 2010, dated 2016)
Where two headings read alike, the source gives them in different places.

Tests used:
[1] = test system: clinical isolates of M. tuberculosis; format: cell-based
[2] = test system: clinical isolates of multidrug-resistant M. tuberculosis

CNC1C(OC2OC(CO)C(N)C(O)C2O)OC2CC(N)C(OC3C(N)CC(N)C(O)C3O)OC2C1O (centres unmarked) [Apramycin]
Activity (resistant/susceptible) ([1]; strain 176949/08, 0.25 μg/ml): R | Activity (resistant/susceptible) ([1]; strain 176949/08, 1 μg/ml): S | Activity (resistant/susceptible) ([1]; strain 176949/08, 4 μg/ml): S | Activity (resistant/susceptible) ([1]; strain 177581/08, 0.25 μg/ml): R | Activity (resistant/susceptible) ([1]; strain 177581/08, 1 μg/ml): S | Activity (resistant/susceptible) ([1]; strain 177581/08, 4 μg/ml): S | Activity (resistant/susceptible) ([1]; strain 177712/08, 0.25 μg/ml): R | Activity (resistant/susceptible) ([1]; strain 177712/08, 1 μg/ml): S | Activity (resistant/susceptible) ([1]; strain 177712/08, 4 μg/ml): S | Activity (resistant/susceptible) ([1]; strain 177809/08, 0.25 μg/ml): R | Activity (resistant/susceptible) ([1]; strain 177809/08, 1 μg/ml): S | Activity (resistant/susceptible) ([1]; strain 177809/08, 4 μg/ml): S | Activity (resistant/susceptible) ([1]; strain 177958/08, 0.25 μg/ml): R | Activity (resistant/susceptible) ([1]; strain 177958/08, 1 μg/ml): S | Activity (resistant/susceptible) ([1]; strain 177958/08, 4 μg/ml): S | Activity (resistant/susceptible) ([1]; strain 178122/08, 0.25 μg/ml): R | Activity (resistant/susceptible) ([1]; strain 178122/08, 1 μg/ml): S | Activity (resistant/susceptible) ([1]; strain 178122/08, 4 μg/ml): S | Activity (resistant/susceptible) ([1]; strain 178242/08, 0.25 μg/ml): R | Activity (resistant/susceptible) ([1]; strain 178242/08, 1 μg/ml): S | Activity (resistant/susceptible) ([1]; strain 178242/08, 4 μg/ml): S | Activity (resistant/susceptible) ([1]; strain 178331/08, 0.25 μg/ml): R | Activity (resistant/susceptible) ([1]; strain 178331/08, 1 μg/ml): S | Activity (resistant/susceptible) ([1]; strain 178331/08, 4 μg/ml): S | Activity (resistant/susceptible) ([1]; strain 178557/08, 0.25 μg/ml): R | Activity (resistant/susceptible) ([1]; strain 178557/08, 1 μg/ml): S | Activity (resistant/susceptible) ([1]; strain 178557/08, 4 μg/ml): S | Activity (resistant/susceptible) ([1]; strain 178594/08, 0.25 μg/ml): R | Activity (resistant/susceptible) ([1]; strain 178594/08, 1 μg/ml): S | Activity (resistant/susceptible) ([1]; strain 178594/08, 4 μg/ml): S | Activity (resistant/susceptible) ([2]; strain 186002/10, 0.25 μg/ml): R | Activity (resistant/susceptible) ([2]; strain 186002/10, 1 μg/ml): S | Activity (resistant/susceptible) ([2]; strain 186002/10, 4 μg/ml): S | Activity (resistant/susceptible) ([2]; strain 186002/10, 10 μg/ml): S | Activity (resistant/susceptible) ([2]; strain 186005/09, 0.25 μg/ml): R | Activity (resistant/susceptible) ([2]; strain 186005/09, 1 μg/ml): S | Activity (resistant/susceptible) ([2]; strain 186005/09, 4 μg/ml): S | Activity (resistant/susceptible) ([2]; strain 186005/09, 10 μg/ml): S | Activity (resistant/susceptible) ([2]; strain 186010/09, 0.25 μg/ml): R | Activity (resistant/susceptible) ([2]; strain 186010/09, 1 μg/ml): S | Activity (resistant/susceptible) ([2]; strain 186010/09, 4 μg/ml): S | Activity (resistant/susceptible) ([2]; strain 186010/09, 10 μg/ml): S | Activity (resistant/susceptible) ([2]; strain 186013/09, 0.25 μg/ml): R | Activity (resistant/susceptible) ([2]; strain 186013/09, 1 μg/ml): S | Activity (resistant/susceptible) ([2]; strain 186013/09, 4 μg/ml): S | Activity (resistant/susceptible) ([2]; strain 186013/09, 10 μg/ml): S | Activity (resistant/susceptible) ([2]; strain 186014/09, 0.25 μg/ml): R | Activity (resistant/susceptible) ([2]; strain 186014/09, 1 μg/ml): S | Activity (resistant/susceptible) ([2]; strain 186014/09, 4 μg/ml): S | Activity (resistant/susceptible) ([2]; strain 186014/09, 10 μg/ml): S

[H]/N=C(/N)N[C@H]1[C@H](O)[C@@H](O)[C@H](O[C@@H]2O[C@@H](C)[C@](O)(C=O)[C@H]2O[C@@H]2O[C@@H](CO)[C@H](O)[C@@H](O)[C@@H]2NC)[C@@H](N/C(N)=N\[H])[C@@H]1O [Streptomycin]
Activity (resistant/susceptible) ([1]; strain 176949/08, 0.25 μg/ml): S | Activity (resistant/susceptible) ([1]; strain 176949/08, 1 μg/ml): S | Activity (resistant/susceptible) ([1]; strain 176949/08, 4 μg/ml): S | Activity (resistant/susceptible) ([1]; strain 177581/08, 0.25 μg/ml): S | Activity (resistant/susceptible) ([1]; strain 177581/08, 1 μg/ml): S | Activity (resistant/susceptible) ([1]; strain 177581/08, 4 μg/ml): S | Activity (resistant/susceptible) ([1]; strain 177958/08, 0.25 μg/ml): R | Activity (resistant/susceptible) ([1]; strain 177958/08, 1 μg/ml): S | Activity (resistant/susceptible) ([1]; strain 177958/08, 4 μg/ml): S | Activity (resistant/susceptible) ([1]; strain 178331/08, 0.25 μg/ml): R | Activity (resistant/susceptible) ([1]; strain 178331/08, 1 μg/ml): S | Activity (resistant/susceptible) ([1]; strain 178331/08, 4 μg/ml): S | Activity (resistant/susceptible) ([1]; strain 178557/08, 0.25 μg/ml): R | Activity (resistant/susceptible) ([1]; strain 178557/08, 1 μg/ml): S | Activity (resistant/susceptible) ([1]; strain 178557/08, 4 μg/ml): S

NCC[C@H](O)C(=O)N[C@@H]1C[C@H](N)[C@@H](O[C@H]2O[C@H](CN)[C@@H](O)[C@H](O)[C@H]2O)[C@H](O)[C@H]1O[C@H]1O[C@H](CO)[C@@H](O)[C@H](N)[C@H]1O [Amikacin]
Activity (resistant/susceptible) ([1]; strain 176949/08, 0.25 μg/ml): R | Activity (resistant/susceptible) ([1]; strain 176949/08, 1 μg/ml): S | Activity (resistant/susceptible) ([1]; strain 176949/08, 4 μg/ml): S | Activity (resistant/susceptible) ([1]; strain 177581/08, 0.25 μg/ml): R | Activity (resistant/susceptible) ([1]; strain 177581/08, 1 μg/ml): S | Activity (resistant/susceptible) ([1]; strain 177581/08, 4 μg/ml): S | Activity (resistant/susceptible) ([1]; strain 177958/08, 0.25 μg/ml): R | Activity (resistant/susceptible) ([1]; strain 177958/08, 1 μg/ml): S | Activity (resistant/susceptible) ([1]; strain 177958/08, 4 μg/ml): S | Activity (resistant/susceptible) ([1]; strain 178331/08, 0.25 μg/ml): R | Activity (resistant/susceptible) ([1]; strain 178331/08, 1 μg/ml): S | Activity (resistant/susceptible) ([1]; strain 178331/08, 4 μg/ml): S | Activity (resistant/susceptible) ([1]; strain 178557/08, 0.25 μg/ml): R | Activity (resistant/susceptible) ([1]; strain 178557/08, 1 μg/ml): S | Activity (resistant/susceptible) ([1]; strain 178557/08, 4 μg/ml): S
